Values of other authors as cited in US20080153832A1, “PAN-ALPHA-2 RECEPTOR AGONIST AND RELAXANT COMPOSITIONS FOR TREATING GASTROINTESTINAL MOTILITY DISORDERS” (Allergan, Inc., priority 2006, published 2008).

SMILES: CN(C)[C@@H](CCOc1cccc2ccccc12)c1ccccc1 [Dapoxetine]
- time to maximum serum concentration: about 1 hour
